One test relates to NTCP. Conditions: most of these compounds, cited from earlier work. From the text:
The hepatitis B virus (HBV) belongs to the family of Hepadnaviridae. Its DNA genome encodes 3 surface proteins (HBs), namely small HBs, middle HBs, and large HBs.[1] The hepatitis D virus (HDV) is a small negative-sense RNA satellite virus and depends on the HBV envelope for entry into hepatocytes, assembly, and secretion of newly formed virions.[2] […] HBV/HDV attachment to NTCP occurs via the myristoylated preS1 domain (myr-pre ...

A further test has as its system NTCP variants. Conditions: cited from earlier work. An excerpt:
This is exemplified by the genetic c.800G>A variant (rs2296651) that is frequent in East Asian populations and that leads to S267F mutation of NTCP inside the tunnel structure. […] More detailed analysis ... || Interaction site A is formed between F13 and F14 of myr-preS1 and the amino acids Q264, F283, F284, and L287 (TM8b, EL4, and TM9) as well as F18 (TM1) of NTCP; interaction sites B between F23 of myr-preS1 and V29 and V32 of NTCP; and interaction site C between K38, D39, H40, and W41 of myr-preS1 and A273, F274, and P275 (TM8b, EL4, and TM9) as well as Y146 (of EL2) of NTCP. For some of these amino acids, mutation studies confirmed their role for the myr-preS1 interaction. […] However, this domain also covers the surface of NTCP and not the tunnel structure. Within the published structures N87 forms hydrogen binds with E43 and K46 of the myr-preS1 string structure, while for the NTCP amino acid residues 84 to 86 no interactions with the myr-preS1 peptide could be detected. As mouse Ntcp with the corresponding residues 84HLTS87 has S ...

Test [1] concerns NTCPwt and NTCP-Y146A/F274A. The test is described as follows: myr-preS1-AX568 peptide binding assay, NTCPwt-HEK293 vs NTCP-Y146A/F274A-HEK293 cells. Conditions: 5 to 160 nM, 37 °C, fluorescence, quadruplicate determinations, two-way ANOVA P < .01. Also on record: species or system human. As for the experimental part: T-Rex Flp-In human embryonic kidney (HEK293) cells (Thermo Fisher Scientific; RRID CVCL_0045) were grown in 1:1 Dulbecco’s modified Eagle medium (DMEM)/Ham’s F12 (Gibco). Both media were supplemented with 10% fetal calf serum (Gibco), L-glutamine 4 mM (Gibco), penicillin 100 U/mL (Carl Roth), and streptomycin 100 μg/mL (Carl Roth). Stably transfected T-Rex Flp-In HEK293 cells were selected with 100 μg/mL hygromycin (Carl Roth). Expression of the recombinant NTCP proteins was induced with 5 μg/mL tetracycline treatment for 72 hours. All cell lines were cultivated in 5% CO2 atmosphere at 37 °C. Cell lines were routinely checked for possible mycoplasma contamination. […]
To study the HBV receptor function of NTCP, NTCPwt-HEK293 and NTCP-Y146A/F274A-HEK293 cells were incubated with the C-terminally Alexa 568 fluorophore-coupled myr-preS1 peptide (further referred to as myr-preS1-AX568), which consists of amino acids 2 to 48 of the large HBV genotype D3 surface protein (Biosynthesis). […] Myr-preS1-AX568 peptide binding was analyzed using Leica DMI6000 B inverted fluorescent microscope and LAS X software, or fluorescence was quantified with Spark multimode microplate reader (Spark Multimode Microplate, Tecan) (excitation: 570 nm, emission: 615 nm). […] Cell-associated radioactivity was quantified by liquid scintillation counting in a Packard Microplate Scintillation Counter TopCount NXT.

In test [2] the target is T1, human Na+/taurocholate co-transporting polypeptide, wild type, FLAG-tagged, on NTCPwt-HEK293 cells (human, UniProt Q14973 1-349).
T1 sequence (looked up): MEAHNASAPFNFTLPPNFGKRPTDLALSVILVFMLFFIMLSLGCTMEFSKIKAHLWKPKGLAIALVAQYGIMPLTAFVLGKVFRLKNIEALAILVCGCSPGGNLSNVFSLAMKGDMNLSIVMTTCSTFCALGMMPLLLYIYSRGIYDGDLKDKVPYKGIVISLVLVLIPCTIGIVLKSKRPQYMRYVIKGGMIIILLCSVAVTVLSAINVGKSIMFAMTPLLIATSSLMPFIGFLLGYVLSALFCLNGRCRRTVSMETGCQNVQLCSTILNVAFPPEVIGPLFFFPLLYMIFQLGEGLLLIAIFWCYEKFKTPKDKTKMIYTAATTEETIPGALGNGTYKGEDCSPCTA
The test is described as follows: cell-based or functional assay.

The target of test [3] is T1, human Na+/taurocholate co-transporting …. The test is described as follows: radioligand binding; competition: 5 nM [3H]preS1 on tetracycline-induced NTCP-HEK293 cells in 96-well plates, 10 minutes at 37 °C in DMEM, after preincubation with increasing concentrations of unlabelled peptide; cells without tetracycline as 0% control; liquid scintillation counting; 2 independent experiments. Conditions: one partner purified.

“And” between values parts separate entries of the source, which are not always exact repeats. Equal entries are not always repeated. Where two headings read alike, the source gives them in different places. Ends that are not written are not given here. * marks the point of attachment. Myristoyl = CCCCCCCCCCCCCC(=O)*

Turning to `CN(CCOc1ccc(CC2SC(=O)NC2=O)cc1)c1ccccn1` (stereo not drawn) [rosiglitazone], the “NTCP inhibition, selectivity virus binding vs bile acid transport” value with NTCP (approved drugs) is listed as “block NTCP in a nonselective manner”.

With `O=C1[C@H](CC[C@H](O)c2ccc(F)cc2)[C@@H](c2ccc(O)cc2)N1c1ccc(F)cc1` [ezetimibe], the “NTCP inhibition, selectivity virus binding vs bile acid transport” value with NTCP (approved drugs) was “block NTCP in a nonselective manner”. As to “myr-preS1: myristoylated preS1 domain of the HBV large surface protein (Myristoyl-GQNLSTSNPLGFFPDHQLDPAFRANTANPDWDFNPNKDTWPDANKVG)”, the myr-preS1 binding result in the test with NTCP variants (84 to 87 humanized construct of mouse Ntcp) was “did not only bind myr-preS1 but also supported infection”; in the test with NTCP variants (158R NTCP variant found in OWM) it was “resistant to myr-preS1 binding”; in the test on NTCP variants (NTCP Q264A mutant, bile acid transport retained), “significantly reduced myr-preS1 binding”; in the test on NTCP variants (NTCP V272W mutant, intact bile acids transport), “significantly reduced myr-preS1 binding”; in the test with NTCP variants (R158G mutation of OWM Ntcp), “sufficient to support myr-preS1 binding”. With `CC(C)c1nc(CN(C)C(=O)N[C@H](C(=O)N[C@@H](Cc2ccccc2)C[C@H](O)[C@H](Cc2ccccc2)NC(=O)OCc2cncs2)C(C)C)cs1` [ritonavir], the “NTCP inhibition, selectivity virus binding vs bile acid transport” value in the test on NTCP (approved drugs) is on record as “block NTCP in a nonselective manner”. As to `CCCCC1=NC2(CCCC2)C(=O)N1Cc1ccc(-c2ccccc2-c2nnn[nH]2)cc1` [irbesartan], the “NTCP inhibition, selectivity virus binding vs bile acid transport” value in the test with NTCP (approved drugs) is reported as “block NTCP in a nonselective manner”. As to `CCC(C)CC(C)C(=O)OC1(C)C(=O)c2c(cc(O)c3c2CC(O)CC3C)C(C)(O)C1=O` (stereo not drawn) [vanitaracin A], the “NTCP inhibition, selectivity virus binding vs bile acid transport” value in the test on NTCP (plant-derived compounds) is given as “block NTCP in a nonselective manner”. As for `C=C(C)[C@@H]1CC[C@]2(C(=O)O)CC[C@]3(C)[C@H](CC[C@@H]4[C@@]5(C)CC[C@H](O)C(C)(C)[C@@H]5CC[C@]43C)[C@@H]12` [betulinic acid], the “NTCP inhibition, selectivity virus binding vs bile acid transport” value with NTCP (plant-derived compounds) is “block NTCP in a nonselective manner”. As to “myr-preS1-AX568: C-terminally Alexa 568 fluorophore-coupled myr-preS1 peptide, amino acids 2 to 48 of the large HBV genotype D3 surface protein (Myristoyl-GQNLSTSNPLGFFPDHQLDPAFRANTANPDWDFNPNKDTWPDANKVG-{Alexa 568}; also: myristoylated (myr-preS1))”, the “binding to the Y146A/F274A NTCP mutant compared with NTCPwt” value in test [1] is “much lower binding to the NTCP-Y146A/F274A mutant compared with NTCPwt”. Turning to `CCCCCCCCCc1cc(OC(=O)c2c(CCCCCCCCC)cc(O)cc2OC2OC(CO)C(O)C(O)C2O)cc(O)c1C(=O)O` (stereo not drawn) [exophillic acid], the “NTCP inhibition, selectivity virus binding vs bile acid transport” value in the test with NTCP (plant-derived compounds) was “block NTCP in a nonselective manner”. For `CC[C@H]1[C@@H](O)[C@@H]2[C@H](CC[C@]3(C)[C@@H]([C@H](C)CCC(=O)O)CC[C@@H]23)[C@@]2(C)CC[C@@H](O)C[C@@H]12` [obeticholic acid], the “NTCP inhibition, selectivity virus binding vs bile acid transport” value in the test with NTCP (bile acid derivatives) is on record as “block NTCP in a nonselective manner”.

B1: wild-type myr-preS1 peptide of HBV genotype D (unlabelled) (peptide)
peptide: GQNLSTSNPLGFFPDHQLDPAFRANTANPDWDFNPNKDTWPDANKVG
modifications: not fully specified (N-terminus); also: myristoylated (myr-preS1)
notes: also called myr-preS1 WT; wild-type myr-preS1 peptide (genotype D)
With B1, the “inhibition of [3H]TCA (1 μM) transport via NTCP in NTCP-HEK293 cells, 10 minutes at 37 °C, IC50” value in test [2] was 111 nM and 221 nM. Further, in test [3], the IC50 is 99 nM and 168 nM.

B2: W41G mutant myr-preS1 peptide of HBV genotype D (peptide)
peptide: GQNLSTSNPLGFFPDHQLDPAFRANTANPDWDFNPNKDTGPDANKVG
modifications: not fully specified (N-terminus); also: myristoylated (myr-preS1)
notes: also called myr-preS1-W41G; myr-preS1 W41G peptide; source: bought: ProteoGenix S.A.S
B2: in test [2], the “inhibition of [3H]TCA (1 μM) transport via NTCP in NTCP-HEK293 cells, 10 minutes at 37 °C, IC50” value is 386 nM and 397 nM. Also, in test [3], the IC50 is 422 nM and 298 nM.

As usually defined, the IC50 is the midpoint of a concentration-inhibition curve. A higher IC50 goes with lower potency.

The record behind these values is paper PMC12597529, “Interaction between W41 of the hepatitis B virus preS1 surface peptide and Y146/F274 of the cellular receptor molecule Na^+/taurocholate co-transporting polypeptide is essential for virus entry” (Molecular Pharmacology, 2025).
